{"source": "patent US9695119B2", "about": "“Methionine analogs and methods of using same” (Bioxiness Pharmaceuticals, Inc., priority 2008, dated 2017)", "key": {"[1]": {"system": "test bacteria (gram positive and gram negative microorganisms commonly associated with wound infection)", "assay": "Broad spectrum bacterial growth inhibition, all test species together", "type": "cell-based", "settings": "different bacteria in M9 minimal media", "description": "Table 2 and FIG. 2 summarizes a series of studies, which were performed to test eradication of bacterial growth using various species (representative strains of gram positive and gram negative microorganisms commonly associated with wound infection). A 96-well plate format was used to culture different bacteria in M9 minimal media supplemented with glucose (M9) or same media supplemented with a range of concentrations of various analogues (Methionine, I-AA and I-AB). Experiments were carried out in duplicate."}, "L929 cells": {"system": "L929 cells", "settings": "mouse, 60 min", "description": "Cytotoxicity is assessed by a colorimetric assay system (Sagripanti J-L, Bonifacino A. Cytotoxicity of Liquid Disinfectants. Surgical Infections, 2000; 1(1): 3-14, the content of which is hereby incorporated by reference, particularly with respect to the experimental methods described therein), using 3′-(phenylamino-carbonyl)-3,4-tetrazo-lium-bis(4-methoxy-6-nitro) benzene sulfonic acid hydrate (XTT), ProCheck™ cell viability assay (Evaluation of a soluble tetrazolium/formazan assay for cell growth and drug sensitivity in culture using human and other tumor cell lines described by Scudiero D A, Shoemaker R A H, Paul K D, Monks A, Tierney S, Nofziger T H, Currens M J, Seniff D, Boyd M R. Cancer Res. 1988 Sep. 1; 48(17):4827-33, the content of which is hereby incorporated by reference, particularly with respect to the experimental methods described therein). Similar approaches for determining the cell viability are used by other investigators. Three cell types are used: […] (L929), primary human skin fibroblast and primary human keratinocyte cells cultured in Dulbecco Modified Eagle's Medium and Keratinocyte defined medium with corresponding growth factors plus antibiotics. Cells are trypsinized and counted under the microscope and seeded at 1000-to-2000 cells per well of a flat-bottom 96-well plate. Cells are allowed to grow overnight at 37° C. Tissue culture media is removed the following day and cells are rinsed with fresh media 1× and then left in 50 μL of tissue culture media. Test articles are prepared as 2-fold dilutions and 200 μL is added into each set of 4-wells (total volume per well is 250 μL). Cells are exposed to test articles for 60 min at room temperature. Immediately after the exposed time, test article from each well is removed and cells are fed with 250 μL of fresh media. Plates are incubated at 37° C. for 18-20 hr. The following day media is removed again and replaced with 100 μL/well of fresh media containing 10/100 μL XTT-reagent. Cells are incubated under growth conditions (5% CO2 at 37° C. humidified incubator), protected from light, until color development is achieved. Absorbance is read at 450 nm with reference wavelength at 750 nm using Molecular Device ThermoMax Plate reader, blanking the plate on the medium-only assay blank wells. Untreated cells receiving XTT reagents-only serve as positive cell proliferation control.\nResults are expressed as percentage of cells surviving the treatment as compared to PBS."}}, "note": "Read-outs that look alike come from different tables or passages of the source."}
{"smiles": "CSCC[C@H](NC(=O)CN)C(=O)NO.Cl", "note": "[I-AB, (S)-2-(2-aminoacetamido)-N-hydroxy-4-(methylthio)butanamide hydrochloride]", "values": [{"measurement": "Concentration dependence of bacterial growth inhibition", "setting": "[1]", "result": "concentration-dependent"}, {"measurement": "Time within which most bacteria were killed", "setting": "[1]", "result": "≤ 24", "unit": "h"}, {"measurement": "Percentage of Surviving L929 cells relative to control", "setting": "L929 cells; 0.1 mM", "result": 99, "unit": "%"}, {"measurement": "Percentage of Surviving L929 cells relative to control", "setting": "L929 cells; 0.2 mM", "result": 92, "unit": "%"}, {"measurement": "Percentage of Surviving L929 cells relative to control", "setting": "L929 cells; 0.39 mM", "result": 88, "unit": "%"}, {"measurement": "Percentage of Surviving L929 cells relative to control", "setting": "L929 cells; 0.78 mM", "result": 90, "unit": "%"}, {"measurement": "Percentage of Surviving L929 cells relative to control", "setting": "L929 cells; 1.56 mM", "result": 89, "unit": "%"}, {"measurement": "Percentage of Surviving L929 cells relative to control", "setting": "L929 cells; 3.13 mM", "result": 86, "unit": "%"}, {"measurement": "Percentage of Surviving L929 cells relative to control", "setting": "L929 cells; 6.25 mM", "result": 88, "unit": "%"}, {"measurement": "Percentage of Surviving L929 cells relative to control", "setting": "L929 cells; 12.5 mM", "result": 89, "unit": "%"}, {"measurement": "Percentage of Surviving L929 cells relative to control", "setting": "L929 cells; 25 mM", "result": 92, "unit": "%"}, {"measurement": "Percentage of Surviving L929 cells relative to control", "setting": "L929 cells; 50 mM", "result": 75, "unit": "%"}]}
